Reference: US8716226B2, “3,5 phenyl-substituted beta amino acid derivatives as integrin antagonists” (Saint Louis University, priority 2012, dated 2014)
pIC50: −log10 of the molar value.

Experiments:
[1] = biological target: T1, αvβ3 (Homo sapiens, UniProt P05106+P06756); assay: 293/b3 cell adhesion assay for αvβ3 function; type: cell-based; details: 293/b3 cells, adhesion to human vitronectin
T1 construct: expressed in transfected cells; host or cells: HEK 293 (293/b3)
Description: 293/b3 Cell Adhesion Assay for αvβ3 Function.
Purified human vitronectin (Calbiochem/EMD Biosciences) diluted to 0.25 μg/ml in TS buffer (25 mM Tris 7.4, 150 mM NaCl) was added to wells (100 μl/well) of a 96-well microtiter plate (Immulon 2HB 96-well; VWR Scientific) and incubated overnight at 4° C. The solution in each well was then replaced with 200 μl of blocking buffer (TS with 1% bovine serum albumin), and the plate incubated for 1 hr at 37° C. Compounds were diluted in test tubes to 2× the peak testing concentration in cell adhesion buffer consisting of Hanks Buffered Salts Solution (HBSS, cation-free, Sigma), 0.1% bovine serum albumin, 25 mM HEPES, and 200 μM MnCl2. […] The cells were washed with the cell adhesion buffer, counted using a hemocytometer, centrifuged and resuspended in cell adhesion buffer at 3×10^6 cells/ml. […] Remaining attached cells were detected by addition of 100 μl/well p-nitrophenylphosphate (Sigma) solution (15 mg tablet dissolved in 25 ml 50 mM NaAcetate, pH5; 0.5% Triton-X-100), incubation for 30 min at 37° C., and then addition of 50 μl/well 1N NaOH to stop the enzyme reaction. Plates were read by colorimetric detection at 405 nm wavelength using a Tecan Safire II plate reader. Concentration-response curves were constructed by non-linear regression (best fit) analysis, and IC50 values were calculated for each compound. […]

[2] = tested on: TGFβ activation by recombinant human integrin αvβ6; assay: Integrin-mediated TGFβ activation assay (MLEC-PAI/L luciferase reporter co-cultured with SW480-β6 cells); type: cell-based; details: MLEC-PAI/L reporter cells co-cultured overnight with SW480-β6 cells
Description: Integrin-Mediated TGFβ Activation Assay.
Mink lung epithelial cells stably transfected with a luciferase reporter driven by a portion of the TGFβ-responsive Plasminogen Activator Inhibitor promoter (MLEC-PAI/L) were seeded at a density of 25,000/well in a white-walled, clear-bottom 96-well culture plate (Costar 3610) in 100 μL of assay medium (phenol red-free DMEM+10% fetal bovine serum). The cells were incubated for one hour in ambient air at room temperature, then at 37° C. for three hours in 5% CO2 to allow cell attachment. The medium was aspirated from the wells and 50 μL of compound diluted to 2× in assay medium was applied to each well, followed by 50 μL of assay medium containing 25,000 SW480-β6 cells, a cell line which stably overexpresses recombinant human integrin αvβ6. […] Following overnight co-culture incubation under standard conditions, the assay medium was aspirated from the wells, and a foil seal was applied to the bottom of the plate to prevent cross-detection of luminescence between the sample wells. […] The assay plate was then read immediately on a luminometer. Data was analyzed by first subtracting the mean substrate blank value from all samples, then dividing by the mean value of the MLEC-PAI/L baseline group to yield a “relative luciferase activity” value (RLA). […]

[3] = biological target: T2, recombinant human integrin αvβ1 (Homo sapiens, UniProt P05556+P06756); assay: Solid phase receptor assay for αvβ1 function; details: purified integrin binding to fibronectin-coated plate
T2 construct: purchased R&D Systems 6579-AV
T2 sequence (P06756 31-889 limits assumed): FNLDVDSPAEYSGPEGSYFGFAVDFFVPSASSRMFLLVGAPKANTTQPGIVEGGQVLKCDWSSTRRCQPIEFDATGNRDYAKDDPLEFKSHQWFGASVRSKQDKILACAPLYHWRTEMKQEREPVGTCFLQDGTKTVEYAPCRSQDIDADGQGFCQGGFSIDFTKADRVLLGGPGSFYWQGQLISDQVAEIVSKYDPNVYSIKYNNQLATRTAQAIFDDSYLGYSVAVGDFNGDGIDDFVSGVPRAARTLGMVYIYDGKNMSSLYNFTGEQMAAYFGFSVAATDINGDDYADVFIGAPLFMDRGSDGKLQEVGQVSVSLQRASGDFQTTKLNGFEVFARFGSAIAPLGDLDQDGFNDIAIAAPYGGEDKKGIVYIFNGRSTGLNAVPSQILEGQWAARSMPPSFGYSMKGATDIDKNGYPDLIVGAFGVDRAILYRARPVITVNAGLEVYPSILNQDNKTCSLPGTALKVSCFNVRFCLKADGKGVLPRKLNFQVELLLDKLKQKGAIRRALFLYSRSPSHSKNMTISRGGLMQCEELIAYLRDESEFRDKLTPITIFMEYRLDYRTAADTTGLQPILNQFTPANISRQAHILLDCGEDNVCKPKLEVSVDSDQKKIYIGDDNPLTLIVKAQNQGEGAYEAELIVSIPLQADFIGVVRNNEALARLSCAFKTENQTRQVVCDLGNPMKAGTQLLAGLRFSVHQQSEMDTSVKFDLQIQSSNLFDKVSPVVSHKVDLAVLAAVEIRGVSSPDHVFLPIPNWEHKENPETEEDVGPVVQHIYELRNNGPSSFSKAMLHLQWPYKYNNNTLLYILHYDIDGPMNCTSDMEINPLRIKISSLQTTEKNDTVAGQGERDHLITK
T2 sequence (P06756 891-992 partner limits assumed): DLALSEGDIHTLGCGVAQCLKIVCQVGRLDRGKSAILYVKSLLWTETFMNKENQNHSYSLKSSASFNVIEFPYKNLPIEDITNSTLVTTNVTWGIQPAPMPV
T2 sequence (P05556 21-728 limits assumed): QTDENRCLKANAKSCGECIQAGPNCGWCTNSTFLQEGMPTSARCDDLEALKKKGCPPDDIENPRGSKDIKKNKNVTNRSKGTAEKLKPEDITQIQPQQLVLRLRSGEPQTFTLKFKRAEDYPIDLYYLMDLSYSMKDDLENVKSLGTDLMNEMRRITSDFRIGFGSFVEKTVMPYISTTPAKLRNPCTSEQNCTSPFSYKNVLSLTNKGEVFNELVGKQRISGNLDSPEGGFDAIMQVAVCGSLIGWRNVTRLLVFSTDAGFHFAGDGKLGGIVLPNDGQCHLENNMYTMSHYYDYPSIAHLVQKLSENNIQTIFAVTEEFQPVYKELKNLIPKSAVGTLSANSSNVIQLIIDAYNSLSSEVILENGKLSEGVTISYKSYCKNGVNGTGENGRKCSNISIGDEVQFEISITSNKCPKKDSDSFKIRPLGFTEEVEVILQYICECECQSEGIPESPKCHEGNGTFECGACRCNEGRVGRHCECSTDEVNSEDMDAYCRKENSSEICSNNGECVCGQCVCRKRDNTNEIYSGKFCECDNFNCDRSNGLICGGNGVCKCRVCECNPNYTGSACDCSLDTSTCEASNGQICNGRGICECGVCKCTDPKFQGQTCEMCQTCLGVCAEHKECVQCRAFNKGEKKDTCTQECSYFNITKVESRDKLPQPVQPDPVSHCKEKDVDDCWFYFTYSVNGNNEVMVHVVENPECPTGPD
Description: Purified human fibronectin (R&D Systems, Inc) diluted to 5 μg/ml in TBS buffer (25 mM Tris 7.4, 137 mM NaCl, 2.7 mM KCl, 1 mM CaCl2, 1 mM MgCl2, 1 mM MnCl2) was added to wells (50 μl/well) of a 96-well half-well transparent microtiter plate (Costar 3690), and incubated overnight at 4° C. Wells were washed 3 times with 150 μl TBS, and 150 μl of blocking buffer (TBS with 1% bovine serum albumin) were added. The plate was incubated for 1 hr at 37° C., and then washed 3× with TBS buffer. Purified recombinant human integrin αvβ1 (R&D Systems 6579-AV) was diluted to 2.0 μg/ml in TBS/0.1% bovine serum albumin. Compounds were diluted into the integrin solution and then 50 μl was added to empty wells of the washed fibronectin-coated plate, according to a standard template, with each sample repeated in triplicate. After incubation for one hour at room temperature, the plate was washed 3× with 150 μl of TBS buffer. To each well, 50 μl of 1 μg/ml biotinylated anti-alpha v antibody (R&D Systems) in TBS/0.1% BSA was added, and the plate was covered and incubated for 1 hr at room temperature. After washing the plate 3× with 150 μl of TBS buffer, 50 μl of streptavidin-conjugated horseradish peroxidase (R&D Systems) was added to the wells, and the plate incubated for 20 min at room temperature. […] Plates were read by colorimetric detection at 650 nm wavelength using a Tecan Safire II plate reader.

T1 sequence (P06756 31-889 limits assumed): as the sequence (P06756 31-889 limits assumed) above
T1 sequence (P06756 891-1048 partner limits assumed): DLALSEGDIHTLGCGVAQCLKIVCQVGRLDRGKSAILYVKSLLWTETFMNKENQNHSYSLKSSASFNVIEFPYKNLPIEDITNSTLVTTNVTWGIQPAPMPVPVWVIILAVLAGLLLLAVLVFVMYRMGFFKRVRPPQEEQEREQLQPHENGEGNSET
T1 sequence (P05106 27-788): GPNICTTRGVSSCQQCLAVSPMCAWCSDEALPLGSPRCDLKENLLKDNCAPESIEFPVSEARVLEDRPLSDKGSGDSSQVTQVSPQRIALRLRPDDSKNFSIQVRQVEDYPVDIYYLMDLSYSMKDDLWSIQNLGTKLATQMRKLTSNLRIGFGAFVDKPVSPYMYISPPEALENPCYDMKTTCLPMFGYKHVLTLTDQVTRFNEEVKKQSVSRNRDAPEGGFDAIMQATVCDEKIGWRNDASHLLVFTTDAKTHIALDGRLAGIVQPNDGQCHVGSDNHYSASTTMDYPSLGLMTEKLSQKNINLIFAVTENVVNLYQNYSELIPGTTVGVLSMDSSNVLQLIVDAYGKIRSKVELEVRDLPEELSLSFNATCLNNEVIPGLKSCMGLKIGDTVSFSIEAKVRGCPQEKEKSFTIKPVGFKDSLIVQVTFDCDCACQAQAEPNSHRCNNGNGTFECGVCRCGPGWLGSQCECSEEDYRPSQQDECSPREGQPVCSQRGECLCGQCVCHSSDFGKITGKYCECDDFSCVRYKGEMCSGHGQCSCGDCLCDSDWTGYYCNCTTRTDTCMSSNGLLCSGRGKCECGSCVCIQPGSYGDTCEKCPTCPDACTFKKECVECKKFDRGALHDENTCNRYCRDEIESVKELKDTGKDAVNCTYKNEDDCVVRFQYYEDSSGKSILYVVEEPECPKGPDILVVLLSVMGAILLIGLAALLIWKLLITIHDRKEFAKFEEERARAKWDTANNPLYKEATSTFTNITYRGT

In the case of `CC(C)(C)c1cc(Br)cc([C@H](CC(=O)O)NC(=O)CNC(=O)c2cc(O)cc(NC3=NCC(O)CN3)c2)c1` (stereo partly drawn) [Example 1, (3S)—N-[3-hydroxy-5-[(1,4,5,6-tetrahydro-5-hydroxy-2-pyrimidinyl)amino]benzoyl]glycyl-3-(3-bromo-5-tert-butylphenyl)-β-alanine], the pIC50 [1] was 9.10, the pIC50 [2] was 6.25 and the pIC50 [3] was 8.60.
